# Legend:
# [1] = tested on: C. albicans SC5314 + E. coli MG1655; assay: Mixed C. albicans-E. coli biofilm, selective plating CFU; assay type: cell-based, Candida albicans + Escherichia coli; conditions: 37°C
# Method: Overnight cultures of C. albicans SC5314 (YPD) and E. coli MG1655 (TSB) were washed three times with PBS, after which they were diluted in RPMI 1640 medium to OD600s of 1 and 0.01, respectively. Equal volumes of these cell suspensions were mixed, and 100 μl of this mixed cell suspension together with compound was added to the wells of a microtiter plate in triplicate. Concentrations of 25 μM (0.0625% DMSO or ethanol) and 100 μM (0.25% DMSO or ethanol) were tested. After 24 h of incubation at 37°C, the medium was removed and the biofilm was washed with PBS. Next, the cells were resuspended in 100 μl of PBS by scraping them off, sonicated (1 min, 45 kHz; USC300-T; VWR, Radnor, PA, USA), and vigorously pipetted up and down. Finally, dilution series were made, and quantification of the E. coli MG1655 and C. albicans SC5314 populations was performed using selective plating on tryptic soy agar (TSA) plates containing 25 mg/liter amphotericin B and YPD plates containing 100 μg/ml tetracycline, respectively. The percentage of C. albicans SC5314 and E. coli MG1655 cells relative to the number of cells after DMSO or ethanol control treatment was determined.
# [2] = tested on: C. albicans SC5314 + S. aureus SH1000; assay: Mixed C. albicans-S. aureus biofilm, selective plating CFU; assay type: cell-based, Candida albicans + Staphylococcus aureus; conditions: 37°C
# Method: Overnight cultures of C. albicans SC5314 (YPD, 30°C) and S. aureus SH1000 (LB, 37°C) were washed with PBS, after which they were diluted in RPMI 1640 medium to obtain cell suspensions of 10^6 cells/ml for fungal cells and 10^8 cells/ml for bacteria. Equal volumes of these cell suspensions were mixed, and 100 μl of this mixed cell suspension together with compound was added to the wells of a microtiter plate in triplicate. Concentrations of 25 μM (0.0625% DMSO or ethanol) and 100 μM (0.25% DMSO or ethanol) were tested. The plates were incubated at 37°C for 90 min. After incubation, the wells were washed twice with PBS, and 200 μl of fresh RPMI 1640 medium with or without compounds was added in triplicate to the wells. After 24 h of incubation at 37°C, the medium was removed and the biofilm was washed with PBS. Next, the cells were resuspended in 100 μl of PBS by scraping them off, sonicated (1 min, 45 kHz; USC300-T; VWR, Radnor, PA, USA), and vigorously pipetted up and down. Finally, dilution series were made, and quantification of the S. aureus SH1000 and C. albicans SC5314 populations was performed using selective plating on TSA plates containing 25 mg/liter amphotericin B and YPD plates containing 100 μg/ml tetracycline, respectively. The percentage of C. albicans SC5314 and S. aureus SH1000 cells relative to the number of cells after DMSO or ethanol control treatment was determined.
# [3] = tested on: eukaryotic tumor cell lines, bone cells, and the nematode Caenorhabditis elegans; parameters: method as in PMID 25325155; conditions: C. elegans; cited from earlier work
# [4] = tested on: bone marrow-derived mesenchymal stem cells (MSC); assay: Mammalian cell viability assay, trypan blue staining; assay type: cell-based; conditions: 12.5 μM, 6 days of exposure
# Method: The viability of two human primary cell types, namely, osteoblasts (OB) and bone marrow-derived mesenchymal stem cells (MSC), was tested according to the ISO 10993-5 standard, as previously described ([76]). Briefly, cells were seeded in 96-well tissue culture test plates (TPP; Trasadingen, Switzerland) at 5 × 10^3 cells/cm^2 in cell culture medium (advanced Dulbecco modified Eagle's medium [DMEM]) supplemented with 10% serum, 1× GlutaMAX, and 0.05 mg/ml gentamicin and were allowed to attach overnight. On the next day, the cells were exposed to (i) cell culture medium and medium with the corresponding control (0.5% ethanol or DMSO; negative controls), (ii) medium with 0.05% phenol (cytotoxic control), and (iii) medium with compounds (12.5 μM) and incubated for 2 h, 48 h, and 6 days (8 repeats for each condition). At each time point, the numbers of viable and dead cells were determined directly by trypan blue staining and indirectly by measuring metabolic activity with 3-(4,5-dimethylthiazol-2-yl)-2,5-diphenyltetrazolium bromide (MTT) staining.
# The medium was removed from the wells, 1/3 trypan blue in DMEM was added to the cells, and the cells were incubated for 3 min, after which the trypan blue was removed and DMEM was added to the wells. In each of four wells, two microscopy fields were counted for viable (transparent) and dead (blue) cells.
# [5] = tested on: bone marrow-derived mesenchymal stem cells (MSC); assay: Osteogenic differentiation, calcium and DNA assay; assay type: cell-based, human; conditions: 12.5 μM; for calcium deposition of MSC (normalized by DNA): osteogenic medium, versus solvent control
# Method: The effects of the substances on the osteogenic differentiation potential were assessed as previously described ([76]). Only the substances that allowed survival of the cells for more than 3 weeks, which is the time needed for mature osteogenic differentiation, were tested. Briefly, osteoblasts and bone marrow-derived mesenchymal stem cells were cultured in a positive solvent control (osteogenic medium with 0.5% DMSO or ethanol background), a negative control (medium without osteogenic supplements), and treated samples (osteogenic medium, 0.5% DMSO or ethanol background, and 12.5 μM test compound) with four repeats per condition. The cells in the mesenchymal stem cell and osteoblast cultures were harvested after 3 or 5 weeks, respectively, for the calcium and DNA assay.
# The calcium deposition of osteoblasts and mesenchymal stem cells was measured with the calcium CPC LiquiColor test (Stanbio Laboratory, Boerne, TX) as previously described ([76]). Briefly, cell cultures were extracted with 5% trichloroacetic acid (500 μl per sample), o-cresolphthalein complex was added, and the calcium content was determined spectrophotometrically at 550 nm. The DNA content was determined as previously described ([76]). DNA values were used to normalize the calcium content. Four wells per condition were examined, and two samples from each well were taken for each assay.
# [6] = 25 μM compound, relative to solvent control
compound,measurement,setting,value
CCCCCCCCn1c(-c2ccc(Cl)cc2)cnc1N [Compound 2],"% CFU survival, E. coli",[1]; 25 μM compound,158.6%
same,"% CFU survival, C. albicans",[1]; [6],104.9%
same,"% CFU survival, C. albicans",[1]; 100 μM compound,0.0%
same,"% CFU survival, E. coli",[1]; 100 μM compound,0.1%
same,"% CFU survival, C. albicans",[2]; 25 μM compound,183.8%
same,"% CFU survival, S. aureus",[2]; 25 μM compound,87.7%
same,"% CFU survival, C. albicans",[2]; 100 μM compound,0.9%
same,"% CFU survival, S. aureus",[2]; 100 μM compound,0.2%
same,toxicity (previously reported),[3],strong toxicity
CC(C)CNc1ncc(-c2ccc(Cl)cc2)[nH]1 [Compound 3],"% CFU survival, E. coli",[1]; 25 μM compound,138.5%
same,"% CFU survival, C. albicans",[1]; [6],143.4%
same,"% CFU survival, C. albicans",[1]; 100 μM compound,59.6%
same,"% CFU survival, E. coli",[1]; 100 μM compound,63.0%
same,"% CFU survival, C. albicans",[2]; 25 μM compound,165.7%
same,"% CFU survival, S. aureus",[2]; 25 μM compound,124.6%
same,"% CFU survival, C. albicans",[2]; 100 μM compound,141.3%
same,"% CFU survival, S. aureus",[2]; 100 μM compound,51.8%
Clc1ccc(-c2cnc(NC3CCCC3)[nH]2)cc1 [Compound 5],"% CFU survival, E. coli",[1]; 25 μM compound,100.6%
same,"% CFU survival, C. albicans",[1]; [6],100.8%
same,"% CFU survival, C. albicans",[1]; 100 μM compound,38.3%
same,"% CFU survival, E. coli",[1]; 100 μM compound,105.6%
same,"% CFU survival, C. albicans",[2]; 25 μM compound,232.4%
same,"% CFU survival, S. aureus",[2]; 25 μM compound,75.4%
same,"% CFU survival, C. albicans",[2]; 100 μM compound,120.6%
same,"% CFU survival, S. aureus",[2]; 100 μM compound,74.5%
Brc1ccc(-c2cnc(NCCn3cc(C4CC4)nn3)[nH]2)cc1 [Compound 6],toxicity (previously reported),[3],higher level of toxicity
CCCCCCCCn1c(-c2ccccc2)cnc1NCC(C)C [Compound 8a],proliferation of MSC (trypan blue),[4],slightly reduced
CCCCCCCCn1c(-c2ccc(Cl)cc2)cnc1NCC(C)C [Compound 8b],survival of MSC allowed,[5],more than 3 weeks
same,calcium deposition of MSC (normalized by DNA),[5],induced
CCCCCCCCn1c(-c2ccc(Br)cc2)cnc1NCC(C)C [Compound 8c],survival of MSC allowed,[5],more than 3 weeks
same,calcium deposition of MSC (normalized by DNA),[5],induced
CCCCCCCCn1c(-c2ccc(Cl)c(Cl)c2)cnc1NCC(C)C [Compound 8d],proliferation of MSC (trypan blue),[4],increase in proliferation
same,survival of MSC allowed,[5],more than 3 weeks
same,calcium deposition of MSC (normalized by DNA),[5],none of the compounds at 12.5 μM negatively affected the calcium deposition
CCCCCCCCn1c(-c2ccccc2)cnc1NC1CCCC1 [Compound 8e],proliferation of MSC (trypan blue),[4],slightly reduced
CCCCCCCCn1c(-c2ccc(Cl)cc2)cnc1NC1CCCC1 [Compound 8f],proliferation of MSC (trypan blue),[4],slightly reduced
CCCCCCCCn1c(-c2ccc(Br)cc2)cnc1NC1CCCC1 [Compound 8g],proliferation of MSC (trypan blue),[4],slightly reduced
same,survival of MSC allowed,[5],more than 3 weeks
same,calcium deposition of MSC (normalized by DNA),[5],induced
CCCCCCCCn1c(-c2ccc(Cl)c(Cl)c2)cnc1NC1CCCC1 [Compound 8h],survival of MSC allowed,[5],more than 3 weeks
same,calcium deposition of MSC (normalized by DNA),[5],induced

# Source: PMC5075052, “Modulation of the Substitution Pattern of 5-Aryl-2-Aminoimidazoles Allows Fine-Tuning of Their Antibiofilm Activity Spectrum and Toxicity” (Antimicrobial Agents and Chemotherapy, 2016)
